# Columns and labels:
# Experiment in all cases: relative viability (nuclei count vs DMSO), 5 days (fraction); higher = more cells survive
# VX-702 + AZD7762 = compound: NC(=O)c1ccc(N(C(N)=O)c2c(F)cccc2F)nc1-c1ccc(F)cc1F [VX-702] + NC(=O)Nc1cc(-c2cccc(F)c2)sc1C(=O)N[C@H]1CCCNC1 [AZD7762] (partner 0.2 µM)
# How it was run: (§1)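 Relative viability was taken as the ratio of nuclei in treated wells to nuclei in vehicle wells. Lung cancer cell lines in 1536-well plates received compounds by pin tool one day after seeding, either one drug alone or a fixed anchor-drug dose plus five library-drug doses (not always all listed) in √10 steps. Nuclei were counted on 4× images after 5 days of treatment, and values are medians of duplicate plates.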
# VX-702 + OSI-027 = compound: NC(=O)c1ccc(N(C(N)=O)c2c(F)cccc2F)nc1-c1ccc(F)cc1F [VX-702] + COc1cccc2cc(-c3nc([C@H]4CC[C@H](C(=O)O)CC4)n4ncnc(N)c34)[nH]c12 [OSI-027] (partner 0.5 µM)
# How it was run: as §1
# Dabrafenib + Luminespib = compound: CC(C)(C)c1nc(-c2cccc(NS(=O)(=O)c3c(F)cccc3F)c2F)c(-c2ccnc(N)n2)s1 [Dabrafenib] + CCNC(=O)c1noc(-c2cc(C(C)C)c(O)cc2O)c1-c1ccc(CN2CCOCC2)cc1 [Luminespib] (partner 0.01 µM)
# How it was run: as §1
# Dabrafenib + Pictilisib = compound: CC(C)(C)c1nc(-c2cccc(NS(=O)(=O)c3c(F)cccc3F)c2F)c(-c2ccnc(N)n2)s1 [Dabrafenib] + CS(=O)(=O)N1CCN(Cc2cc3nc(-c4cccc5[nH]ncc45)nc(N4CCOCC4)c3s2)CC1 [Pictilisib] (partner 1 µM)
# How it was run: as §1
Cell Line,relative viability (VX-702 + AZD7762; first compound 0.02 µM),relative viability (VX-702 + AZD7762; first compound 0.2 µM),relative viability (VX-702 + AZD7762; first compound 0.6325 µM),relative viability (VX-702 + AZD7762; first compound 2 µM),relative viability (VX-702 + OSI-027; first compound 0.02 µM),relative viability (VX-702 + OSI-027; first compound 0.2 µM),relative viability (VX-702 + OSI-027; first compound 0.6325 µM),relative viability (VX-702 + OSI-027; first compound 2 µM),relative viability (Dabrafenib + Luminespib; first compound 0.003 µM),relative viability (Dabrafenib + Luminespib; first compound 0.009487 µM),relative viability (Dabrafenib + Luminespib; first compound 0.03 µM),relative viability (Dabrafenib + Luminespib; first compound 0.09487 µM),relative viability (Dabrafenib + Luminespib; first compound 0.3 µM),relative viability (Dabrafenib + Pictilisib; first compound 0.003 µM),relative viability (Dabrafenib + Pictilisib; first compound 0.009487 µM),relative viability (Dabrafenib + Pictilisib; first compound 0.03 µM),relative viability (Dabrafenib + Pictilisib; first compound 0.09487 µM),relative viability (Dabrafenib + Pictilisib; first compound 0.3 µM)
NCI-H1975,0.663,0.741,0.763,0.815,0.753,0.756,0.829,0.779,0.159,0.189,0.165,0.278,0.191,0.267,0.308,0.27,0.257,0.234
NCI-H460,0.732,0.585,0.721,0.638,0.712,0.644,0.693,0.55,0.0327,0.0312,0.0334,0.042,0.0437,0.194,0.352,0.245,0.653,0.553
NCI-H838,0.937,0.912,1.05,0.903,0.394,0.356,0.448,0.409,0.35,0.311,0.236,0.292,0.275,0.394,0.563,0.421,0.447,0.385
NCI-H2087,1.53,1.35,1.54,1.34,0.55,0.471,0.48,0.497,,0.202,0.163,0.154,0.207,0.38,0.819,1.08,0.728,0.703
NCI-H596,1.1,1.03,1.12,1.09,0.807,0.737,0.797,0.823,,1.03,0.691,0.885,0.927,0.372,0.364,0.194,0.397,0.423
HCC-827,0.2,0.226,0.215,0.137,0.828,0.839,0.688,0.273,0.387,0.986,0.308,,0.518,1.07,1.13,0.89,,1.03
NCI-H1755,0.456,0.442,0.447,0.367,0.857,0.829,0.721,0.718,0.407,0.542,0.434,0.519,0.577,0.444,0.414,0.237,0.418,0.342
NCI-H2347,0.746,0.8,0.787,0.699,0.491,,0.494,0.336,,0.508,0.231,0.71,0.458,0.693,0.6,0.381,0.57,0.459

# Source: the supplement of paper PMC10307832
